Assay results taken from ChEMBL document CHEMBL1131178, “Novel disaccharide inhibitors of human glioma cell division” (1998).

Each compound was assayed on C6 (assay: Inhibitory activity against rat C6 Glioma cells stimulated with Fetal bovine serum; Not detectable).
Type: functional, cell-based
In the case of CCCCCCCCOC1OC(COCC(CO)(CO)CO)C(O)C(OC2OC(C)C(O)C(O)C2O)C1NC(C)=O (centres undefined), the ID50 is reported as “Not detectable”. With CCCCCCCCO[C@H]1O[C@@H](COCC(CO)(CO)COS(=O)(=O)O)C(O)[C@H](O[C@@H]2O[C@@H](C)[C@@H](O)[C@H](O)[C@@H]2O)[C@@H]1NC(C)=O (some centres undefined) the ID50 was “Not detectable”. For CCCCCCCCO[C@H]1O[C@@H](COCC(CO)(CO)COS(=O)(=O)O)[C@@H](OCC(CO)(CO)COS(=O)(=O)O)[C@H](O[C@@H]2O[C@@H](C)[C@@H](O)[C@H](O)[C@@H]2O)[C@@H]1NC(C)=O, the ID50 was “Not detectable”. In the case of CCCCCCCCO[C@H]1O[C@@H](CO)[C@@H](OCC(CO)(CO)COS(=O)(=O)O)[C@H](O[C@@H]2OC(C)[C@@H](O)[C@H](O)[C@@H]2O)[C@@H]1NC(C)=O (some centres undefined), the ID50 is reported as “Not detectable”.
